Measured values as given in patent publication US10138232B2, “Naphthyridinedione derivatives” (NOVARTIS AG, priority 2014, dated 2018).

Test system: CFTR-Y122X (GFP-CFTR-Y122X-Renilla construct) in Hek293 cell lines
Assay: CFTR-Y122X assay (dual reporter readthrough, Renilla luminescence)
Type: cell-based
Settings: Homo sapiens, compounds incubated 24 h, tested up to 100 μM; for AC50: nonsense mutation suppression in the CFTR-Y122X assay; for Emax: nonsense mutation suppression, 100% activity = 14 mM paromomycin, read-out: Amax
From the text: In particular, compounds of formula (I), (I′), (Ia), (Ia′) or (Ib) I act as nonsense mutation suppressors on frequent PTCs, e.g. on Y122X in the mRNA of the cystic fibrosis conductance regulator protein (CFTR). This can be determined in vitro, for example, using cell lines expressing GFP-CFTR-Y122X-Renilla constructs as described herein.
Activity of compounds of the present invention was examined in recombinant, dual reporter isogenic Hek293 cell lines (“CFTR-Y122X assay”). The engineered reporter constructs contained the 18 bp sequence strech corresponding to a common Y122X PTC mutation in CFTR class I mutant patients (see Sermet-Gaudelus, BMC Medicine, 2007, 5(5)). Instead of a tyrosine (Y) in position 122 of the CFTR protein a TGA stop codon interrupts the open reading frame (Y122X) of the corresponding mRNA. This TGA stop codon triplet (followed by the pyrimidine base cytosine) is permissive to aminoglycoside mediated translational readthrough which served as positive control for high throughput screening. A corresponding TAA stop codon variant and a wildtype non mutated construct was used for confirmation and counter screening. The CFTR sequence was sandwiched between an eGFP reporter, and a triple myc tag sequence fused to a full length Renilla reporter. All sequences, including an intron containing one positioned pre-eGFP (b-globin intron) were cloned in frame. The corresponding expression constructs were stably expressed in the isogenic HEK-R4 cell host (Invitrogen Incorp.) and selected by blasticidin resistance. The isogenic integration of the construct minimizes gene dose effects and improves assay reproducibility. Stably integrated single cell derived clones were selected and characterized for aminoglycoside mediated readthrough. […] Readthrough of Y122X accumulates an intracellular localized fusion protein approximately 65.5 kDa in size as controlled by western blot analysis and immunofluorescence using an anti-renilla antibody. The eGFP reporter pre-PTC mutation serves as visual control for genetic stability of the screening clones and minimizes protein degradation of small fusion protein amounts. In the assay, compound concentration was 10 μM. In miniaturized 1536 well format 2000 cells were dispensed in 4 μl/well and incubated for 24 h at 37° C., 5% CO2. 40 nl compounds were placed on the cells with control wells containing 1 ul Paramomycin and 14.4 mM final concentration. Compounds were incubated for 24 h. Renilla Glo substrate (2.5 ul) was added and plates were centrifuged and processed for luminescence measurement using various readers. Activity calculation was done using the equation: A1(%)=100*(S−NC)/(AC−NC) where AC, NC and S correspond to active controls (injection of Stimulation buffer=100% stimulation), neutral controls (buffer injection which Iloprost EC10) and screening samples (S). NC corresponds to 0% activity whereas AC is 100% activity (14 mM paromomycin). False positive artefacts were removed in confirmation and validation screening using the same assay format followed by counterscreening using the respective wildtype construct (w/o PTC mutation) cell model. Compounds were tested up to 100 μM compound concentration.

SMILES	AC50 [µM]	Emax [%]
CC(C)c1cc2c(c(=O)c3ccccc3n2C)c(=O)n1-c1ccccn1 [Example 2.10, 3-isopropyl-5-methyl-2-(pyridin-2-yl)benzo[b][1,6]naphthyridine-1,10(2H,5H)-dione]	10	177
Cn1c2ccc(F)cc2c(=O)c2c(=O)n(-c3ccccc3)c(C3CCC3)cc21 [Example 1.39, 3-cyclobutyl-8-fluoro-5-methyl-2-phenylbenzo[b][1,6]naphthyridine-1,10(2H,5H)-dione]	1.2	239
COc1ccc2[nH]c3cc(C(C)C)n(-c4ccccc4)c(=O)c3c(=O)c2c1 [Example 1.50, 3-isopropyl-8-methoxy-2-phenylbenzo[b][1,6]naphthyridine-1,10(2H,5H)-dione]	16.9	110
Cc1cc2c(s1)c(=O)c1c(=O)n(-c3ccccc3)c(C(C)C)cc1n2C [Example 1.19, 6-isopropyl-2,4-dimethyl-7-phenylthieno[3,2-b][1,6]naphthyridine-8,9(4H,7H)-dione]	12.8	253
CC(C)c1cc2[nH]c3c(c(=O)c2c(=O)n1-c1ccccc1)CCC3 [Example 1.23, 3-isopropyl-2-phenyl-5,6,7,8-tetrahydro-1H-cyclopenta[b][1,6]naphthyridine-1,9(2H)-dione]	5.2	414
CC(C)c1cc2[nH]c3sccc3c(=O)c2c(=O)n1-c1ccccc1 [Example 1.12, 7-isopropyl-6-phenylthieno[2,3-b][1,6]naphthyridine-4,5(6H,9H)-dione]	19	248
CC(C)c1cc2c(c(=O)c3sccc3n2C)c(=O)n1-c1ccccc1 [Example 1.17, 6-isopropyl-4-methyl-7-phenylthieno[3,2-b][1,6]naphthyridine-8,9(4H,7H)-dione]	9.2	430
Cc1ccc2c(c1)c(=O)c1c(=O)n(-c3ccccc3)c(C(C)C)cc1n2C [Example 1.10, 3-isopropyl-5,8-dimethyl-2-phenylbenzo[b][1,6]naphthyridine-1,10(2H,5H)-dione]	7.3	409
Cc1csc2c(=O)c3c(=O)n(-c4ccccc4)c(C(C)C)cc3n(C)c12 [Example 1.21, 6-isopropyl-3,4-dimethyl-7-phenylthieno[3,2-b][1,6]naphthyridine-8,9(4H,7H)-dione]	5.4	379
COc1cccc2c(=O)c3c(=O)n(-c4ccccc4)c(C(C)C)cc3[nH]c12 [Example 1.47, 3-isopropyl-6-methoxy-2-phenylbenzo[b][1,6]naphthyridine-1,10(2H,5H)-dione]	5.2	312
O=c1c2ccccc2[nH]c2cc(C3CCC3)n(-c3ccccc3)c(=O)c12 [Example 1.1, 3-Cyclobutyl-2-phenylbenzo[b][1,6]naphthyridine-1,10(2H,5H)-dione]	0.6	219
CC(C)c1cc2[nH]c3ccc(F)cc3c(=O)c2c(=O)n1-c1ccccc1 [Example 1.5, 8-fluoro-3-isopropyl-2-phenylbenzo[b][1,6]naphthyridine-1,10(2H,5H)-dione]	1.8	358
CC(C)c1c(Cl)c2[nH]c3ccccc3c(=O)c2c(=O)n1-c1ccccc1 [Example 3.1, 4-chloro-3-isopropyl-2-phenylbenzo[b][1,6]naphthyridine-1,10(2H,5H)-dione]	3.2	211
CC(C)c1cc2[nH]c3ccccc3c(=O)c2c(=O)n1-n1cccc1 [Example 2.17, 3-isopropyl-2-(1H-pyrrol-1-yl)benzo[b][1,6]naphthyridine-1,10(2H,5H)-dione]	9	237
Cc1ccc2[nH]c3cc(C4CCC4)n(-c4ccccc4)c(=O)c3c(=O)c2c1 [Example 1.41, 3-cyclobutyl-8-methyl-2-phenylbenzo[b][1,6]naphthyridine-1,10(2H,5H)-dione]	0.5	223
